In PubChem BioAssay AID504322 (Emory University Molecular Libraries Screening Center, 2011):
Calls of active or inactive are those of the source. The rule behind the calls is not given here.

System: CHOP reporter cell assay, percent of control
Assay: CHOP reporter inhibitor potency, dose response, cell-based (AID 504322);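 note: CHO cells carrying a CHOP reporter stimulated with tunicamycin to induce ER stress; potency is for inhibition of the stress-induced reporter signal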

## O=c1c2ccccc2nc2n1CCN2Cc1ccc(Cl)cc1
  IC50: 9.8 µM (inactive)

## CC(C)Oc1cc(NC(=O)CS(=O)CC(=O)Nc2cccc(C(F)(F)F)c2)c(Cl)cc1Cl (stereo unspecified)
  IC50: 7.99 µM (inactive)

## Cc1cc(C)c(S(=O)(=O)NCCn2c(C)cc3ccccc32)c(C)c1
  IC50: 9.61 µM (inactive)

## Cc1nn(Cc2c(Cl)cccc2Cl)c(C)c1NC(=O)c1cc(C(C)C)on1
  IC50: > 10 µM (inactive)

## Cc1c(CN2CCC(CO)(CCOc3ccccc3)CC2)[nH]c2c(Cl)cccc12
  IC50: 9.13 µM (inactive)

## OC(CNCCc1ccc(C(F)(F)F)cc1)COc1ccc2ccccc2c1 (stereo unspecified)
  IC50: 9.41 µM (inactive)

## CCN1C/C(=C/c2ccc(OC)c(O)c2)C(=O)/C(=C/c2ccc(OC)c(O)c2)C1
  IC50: 5.33 µM (inactive)

## Nc1c(C(=O)Nc2nc3ccccc3s2)sc2nc(-c3cccs3)ccc12
  IC50: 7.44 µM (inactive)

## Cc1ccc(/C=C2\SC(=S)N(CCCC(=O)Nc3ccccn3)C2=O)cc1
  IC50: 0.42 µM

## CCOC(=O)CCS(=O)(=O)c1nc(-c2ccccc2)cc(C(F)(F)F)n1
  IC50: < 0.16 µM

## COc1ccc(/C=C2/SC(=S)N(CCCC(=O)Nc3ccc(O)cc3)C2=O)cc1
  IC50: 0.25 µM

## CC(C)c1ccc2c(c1)C1(NN=C(c3ccccc3)S1)C(=O)N2 (stereo unspecified)
  IC50: > 10 µM (inactive)

## Cc1sc(NC(=O)c2cccc([N+](=O)[O-])c2)c(C(N)=O)c1-c1ccc(C(C)(C)C)cc1
  IC50: > 10 µM (inactive)

## COC(=O)CS(=O)(=O)c1nnc([C@H](Cc2ccccc2)NC(=O)OC(C)(C)C)o1
  IC50: 4.68 µM

## CS(=O)(=O)c1nc(-c2cccs2)cc(C(F)(F)F)n1
  IC50: < 0.16 µM

## CC(C)(C)c1ccc(-c2n[nH]c(=S)n2C2CCCC2)cc1
  IC50: 7.55 µM (inactive)

## COc1ccccc1-c1cc(C(F)(F)F)nc(S(=O)(=O)CCCC(=O)Nc2cccnc2Cl)n1
  IC50: > 10 µM (inactive)

## C[C@H](NC(=O)c1[nH]cnc1C(=O)Nc1ccc(CNC(=O)OC(C)(C)C)cc1)C(=O)OC(C)(C)C
  IC50: > 10 µM (inactive)

## CCCCn1c(/N=C/c2c[nH]c3ccccc23)nc2ccccc21
  IC50: 6.06 µM (inactive)

## Cc1cccc(/C=C/C(=O)c2cc(Br)ccc(=O)c2O)c1
  IC50: 8.57 µM (inactive)

## CCOC(=O)c1c(NC(=O)Cc2cccs2)sc(C(=O)NC2CCCCC2)c1C
  IC50: 2.99 µM

## COc1cc([C@@H]2c3cc4c(cc3[C@@H](O)[C@@H](CO)[C@@H]2CO)OCO4)cc(OC)c1O[Si](C)(C)C(C)(C)C
  IC50: 6.02 µM (inactive)

## Cc1cc(C(=O)COC(=O)c2ccccc2O)c(C)n1Cc1cccs1
  IC50: < 0.16 µM (inactive)

## CC(C)C[C@H](NC(=O)c1[nH]cnc1C(=O)Nc1ccccc1)C(=O)OC(C)(C)C
  IC50: 5.95 µM (inactive)

## CCc1c(C)sc(NC(=O)CSc2nc3c(c(C(F)(F)F)n2)CCc2ccccc2-3)c1C#N
  IC50: 9.75 µM (inactive)

## CC(C)=CCCC1(C)C=Cc2c(c(C)cc3c2[nH]c2cc(O)ccc23)O1 (stereo unspecified)
  IC50: 6.04 µM (inactive)

## Cc1cc(-c2[nH]nc3c2C(c2ccc(Cl)cc2)C(C#N)=C(N)O3)c(C)s1 (stereo unspecified)
  IC50: 7.25 µM (inactive)

## COC(=O)C[C@]1(C(=O)OC)CN(C#N)N(c2ccc(Cl)cc2)C12c1ccccc1-c1ccccc12
  IC50: 2.16 µM

## CN(C)c1ccc(-c2nc3ccccn3c2/N=C/c2ccc(Br)cc2)cc1
  IC50: 7.04 µM

## Cc1nc(NC(=O)CSc2nc3cccnc3n2Cc2ccccc2)sc1C
  IC50: > 10 µM (inactive)

## CCCCc1nc(NCCN)c(C#N)c2c1CSC(C)(C)C2
  IC50: 5.15 µM (inactive)

## COc1ccc(C(=O)c2c(C(F)(F)F)oc3c2C(=O)c2ccccc2C3=O)cc1
  IC50: 9.46 µM (inactive)

## CCOC(=O)C1=C(O)/C(=C/c2ccc(CNC(=O)C(=O)Nc3ccc(C)cc3)o2)N=C1C
  IC50: > 10 µM (inactive)

## CC1(c2ccc(OC(F)F)cc2)NC(=O)N(/N=C/c2c(O)ccc3ccccc23)C1=O (stereo unspecified)
  IC50: 8.25 µM (inactive)

## Cc1ccc(C2=NN(C(=O)c3cccs3)C(c3ccccc3O)C2)cc1 (stereo unspecified)
  IC50: 9.38 µM (inactive)

## CCOC(=O)N1CCC(n2c(=S)[nH]c3cc(OCC)c(OCC)cc3c2=O)CC1
  IC50: 4.35 µM (inactive)

## CCOc1cc(/C=N\NC(=O)Cc2ccccc2)ccc1OCC(=O)Nc1ccc(C)c(C)c1
  IC50: 6.38 µM (inactive)

## NC(=O)c1cc(-c2ccccc2)nc(N2CCCCCC2)n1
  IC50: 9.62 µM (inactive)

## COc1ccc(C(CCNCc2ccc(F)cc2)c2ccc(F)cc2)cc1 (stereo unspecified)
  IC50: 9.74 µM (inactive)

## CC(=O)C(C(C)=O)c1c(Cl)c(O)c(O)c2c(C(=O)c3ccccc3)coc12
  IC50: 5.67 µM (inactive)

## CCN=C1NN=C(c2cc(C)n(Cc3ccco3)c2C)CS1
  IC50: < 0.16 µM

## O=C(OCC(F)(F)F)c1cccc(COc2ccc3ccccc3c2)c1
  IC50: 1.26 µM

## CCc1ccc(C(=O)/C=C/c2ccc([N+](=O)[O-])o2)cc1
  IC50: 9.75 µM (inactive)

## Cc1[nH]n(-c2ccccc2)c(=O)c1/C=C1/C=c2ccccc2=N1
  IC50: 9.74 µM (inactive)

## Nc1ccc(N2CCCCCC2)cc1
  IC50: > 10 µM (inactive)

## COc1ccc(NC(=O)/C(Cl)=C(/Cl)S(=O)(=O)Cc2ccc(C)cc2)cn1
  IC50: > 10 µM (inactive)

## O=C(Cc1ccccc1)NC(=S)Nc1cccc(C(F)(F)F)c1
  IC50: 3.61 µM (inactive)

## Cc1ccc2nc(Nc3ccc4[nH]c(=O)[nH]c4c3)c(-n3nc(C)cc3C)nc2c1
  IC50: 6.47 µM

## Oc1ccc(/C=N/Nc2nc(N3CCCCCC3)nc(N3CCCCCC3)n2)c(O)c1
  IC50: 9.82 µM (inactive)

## C=CS(=O)(=O)c1ccc(Oc2ccc(S(=O)(=O)C=C)cc2)cc1
  IC50: 1.7 µM

## CC(C)c1nnc(N2C(=O)c3oc4ccccc4c(=O)c3C2c2ccco2)s1 (stereo unspecified)
  IC50: > 10 µM (inactive)

## Cc1nn(C(C)(C)C)c(C)c1/C=N/OC(=O)Nc1ccc(Cl)cc1
  IC50: < 0.16 µM

## Cc1ccc(NN2C(=O)C=C(c3ccc(Cl)cc3)C2=O)cc1
  IC50: 2.09 µM

## O=C(N/N=C/c1ccc(F)cc1)c1c(O)c2ccccc2[nH]c1=O
  IC50: > 10 µM (inactive)

## CCOC(=O)c1[nH]c2ccc(Cl)cc2c1-c1ccccc1
  IC50: 9.7 µM (inactive)

## CCCCCn1c(SCCC(C)C)nc2c1c(=O)[nH]c(=O)n2C
  IC50: 6.85 µM (inactive)

## O=C1NC(=S)S/C1=C\C=C\c1ccc([N+](=O)[O-])o1
  IC50: 9.29 µM (inactive)

## O=C(Nc1ccc(S(=O)(=O)N2CCOCC2)cc1)c1ccc(CN2CCc3ccccc3C2)cc1
  IC50: < 0.16 µM

## CC(=O)NCc1ccc(C(=O)CCl)s1
  IC50: 9.42 µM (inactive)

## COc1ccc(NC(=O)c2cc(-c3cc(C)cc(C)c3O)n[nH]2)cc1Cl
  IC50: 8.79 µM (inactive)

## COC(=O)/C(=C1/Oc2cc(C)oc(=O)c2S1)C(F)(F)F
  IC50: 4.93 µM

## CCC1CCc2c(sc(NC(=O)c3ccoc3C)c2C(N)=O)C1 (stereo unspecified)
  IC50: > 10 µM (inactive)

## Nc1cc(Cl)c2nonc2c1[N+](=O)[O-]
  IC50: 5.89 µM (inactive)

## Cc1ccc(C2CN(C)C3(C(=O)Nc4ccccc43)C23COc2ccccc2C3=O)cc1 (stereo unspecified)
  IC50: > 10 µM (inactive)

## Cc1ccc(N(c2ncnc(N)c2[N+](=O)[O-])C2CCCCC2)cc1
  IC50: > 10 µM (inactive)

## COc1cc(CNCc2ccccn2)ccc1OCc1ccc(Cl)cc1Cl
  IC50: 6.74 µM (inactive)

## O=c1cc(-c2c(F)c(F)c(F)c(F)c2F)oc2c(F)c(F)c(F)c(F)c12
  IC50: 3.98 µM

## Cc1cc(/C=N/Nc2nc(N)ncc2[N+](=O)[O-])c(C)n1-c1cccc(C(F)(F)F)c1
  IC50: 9.14 µM (inactive)

## O=C(Nc1cccc(Cl)c1)Nc1ccnc(-c2cccnc2)n1
  IC50: > 10 µM (inactive)

## CC(C)(C)c1ccc(NC(=O)Nc2ccc(F)cc2)cc1
  IC50: > 10 µM (inactive)

## Cc1ccc(C)c(OCc2ccc(C(=O)N3N=C(C(F)F)CC3(O)C(F)F)o2)c1 (stereo unspecified)
  IC50: 2.89 µM

## CCOC(=O)Cc1csc(NC(=O)NC2(C(F)(F)F)Oc3cc(Cl)c(Cl)cc3O2)n1
  IC50: 4.04 µM

## Cc1ccc2nc(-c3cc(-c4ccccc4)no3)cn2c1
  IC50: 9.74 µM (inactive)

## CC1CCC(C(C)C)C(OCC(O)CN2CCN(Cc3ccccc3)CC2)C1 (stereo unspecified)
  IC50: 7 µM (inactive)

## CC(C)=CCc1c(O)cc2oc3c(CC=C(C)C)c(O)c(O)c(CC=C(C)C)c3c(=O)c2c1O
  IC50: 9.67 µM (inactive)

## CN1CCN(c2ccc(-c3ccc4ccccc4n3)cc2)CC1
  IC50: < 0.16 µM (inactive)

## CC(C)(C)c1cc(-c2csc(Nc3ccccc3)[n+]2Cc2ccc(C(=O)O)cc2)cc(C(C)(C)C)c1O
  IC50: 9.46 µM (inactive)

## CCCNC(=O)c1nnsc1S(=O)c1ccc(Cl)cc1 (stereo unspecified)
  IC50: 5.55 µM (inactive)

## Cc1nc(SCC(=O)Nc2cc(C)on2)c2c3c(sc2n1)CCCC3
  IC50: > 10 µM (inactive)

## CC(C)(C)c1ccc(S(=O)(=O)NCC(=O)Nc2sc3c(c2C(N)=O)CCCC3)cc1
  IC50: 9.83 µM (inactive)

## Cc1ccc(NC(=O)O/N=C/c2c(C)nn(C(C)(C)C)c2C)cc1Cl
  IC50: < 0.16 µM

## O=C(CSc1ncnc2[nH]ncc12)Nc1nc(-c2ccc(F)c(F)c2)cs1
  IC50: 6.98 µM (inactive)

## O=C(On1c(-c2ccccc2)nc2ccccc2c1=O)c1ccco1
  IC50: > 10 µM (inactive)

## CCC1CCCCN1S(=O)(=O)c1ccc(C(=O)Nc2nnc(-c3ccccc3Cl)o2)cc1 (stereo unspecified)
  IC50: 9.92 µM (inactive)

## Cc1ccc(-c2ccc(/C=C(\C#N)C(=O)Nc3cc(C)nn3-c3ccccc3)o2)cc1
  IC50: 6.7 µM (inactive)

## CCCNC(=O)c1nnsc1S(=O)(=O)c1ccc(Cl)cc1
  IC50: 2.02 µM (inactive)

## Cc1ccc2[nH]c(O)c(N=NC(=O)CCc3ccccc3)c2c1Br
  IC50: 4.27 µM

## NC(=S)n1[nH]c(-c2ccc([N+](=O)[O-])cc2)c(N=Nc2cccc([N+](=O)[O-])c2)c1=O
  IC50: 4.4 µM (inactive)

## COc1ccc(C(=O)/C=C/C(=O)N(CC(=O)NCCC(C)C)Cc2cccs2)c(O)c1
  IC50: 9.55 µM (inactive)

## CC(C)(C)C(=O)Nc1ccc(-c2nc3ccccc3c(=O)o2)cc1
  IC50: 0.7 µM (inactive)

## O=[N+]([O-])c1ccc(S(=O)(=O)CC(CN2CCCCC2)N2CCCCC2)cc1 (stereo unspecified)
  IC50: 5.93 µM (inactive)

## Cc1ccc(N2C(=O)NC(=O)/C(=C\C=C\c3ccco3)C2=O)cc1
  IC50: 9.55 µM (inactive)

## CC(C)(C)c1ccc(CN2N=Nc3ccccc3S2(=O)=O)cc1
  IC50: 9.3 µM (inactive)

## CCOc1ccc(C2C=C(c3ccc(C)cc3)Nc3nnnn32)cc1 (stereo unspecified)
  IC50: 9.86 µM (inactive)

## CCCCCCOC(=O)Nc1ccc(S(=O)(=O)Nc2cccc([N+](=O)[O-])c2)cc1
  IC50: > 10 µM (inactive)

## O=C(N/N=C/c1cccc(F)c1)c1c(O)c2ccccc2[nH]c1=O
  IC50: 6.48 µM (inactive)
